For one series, the target named is T1, Human GLP-1 receptor (Homo sapiens, UniProt P43220).
T1 construct: The full-length cDNA was cloned in pcDNA3.1(+); expressed in transfected cells
In words: In vitro Human GLP-1 R agonist activity (cyclic AMP determination) in CHO/human GLP1R cells. Type of series: cell-based.

A short description of series [1]: Stability in liver microsomes. It is filed as in vitro ADME. The settings on record: 2 μM peptidomimetic, human liver microsomes, 37° C. The procedure:
(§1) Reactions were terminated by the addition of TFA/H2O (15 mL, 10% (v/v)). […] The column was equilibrated with TFA/H20, at a flow rate of 1 mL/min.
A general note: Liver microsomes are vesicles of endoplasmic reticulum, rich in cytochrome P450 enzymes.

Series [2] deals with RIN5F (Rat Insulinoma) cells. Kind of series: In vitro glucose-dependent insulin secretion (RIN5F cell assay screening protocol). The settings on record: 16.7 mM glucose load. It is filed as cell-based.
The nature of series [3]: Stability in simulated gastric fluid. It is filed as in vitro ADME. The settings on record: 2 μM peptidomimetic, simulated gastric fluid pH 1.5, 37° C.; for half-life at 2 μM: read-out: half-life (t1/2) when incubated with simulated gastric fluid. The procedure: as §1
A short description of series [4]: Stability in human plasma. Type of series: in vitro ADME. The settings on record: 2 μM peptidomimetic, pooled human plasma, 37° C.; for half-life at 2 μM: pH 7.8, read-out: half-life (t1/2) when incubated with human plasma. On the procedure: as §1
In another series the target is DPP IV (Homo sapiens, UniProt P27487). Kind of series: Stability against DPP IV enzyme. It is filed as in vitro ADME. The settings on record: 37° C.; for % degradation of peptidomimetics in 24 h when incubated with DPP-IV enzyme: 2 μM peptidomimetic; for half-life at 2 μM: DPP IV enzyme, pH 7.8, 2 μM peptidomimetic, read-out: half-life (t1/2) when incubated with DPP-IV enzyme. The procedure: as §1
DPP IV, sequence (P27487 whole entry, species assumed): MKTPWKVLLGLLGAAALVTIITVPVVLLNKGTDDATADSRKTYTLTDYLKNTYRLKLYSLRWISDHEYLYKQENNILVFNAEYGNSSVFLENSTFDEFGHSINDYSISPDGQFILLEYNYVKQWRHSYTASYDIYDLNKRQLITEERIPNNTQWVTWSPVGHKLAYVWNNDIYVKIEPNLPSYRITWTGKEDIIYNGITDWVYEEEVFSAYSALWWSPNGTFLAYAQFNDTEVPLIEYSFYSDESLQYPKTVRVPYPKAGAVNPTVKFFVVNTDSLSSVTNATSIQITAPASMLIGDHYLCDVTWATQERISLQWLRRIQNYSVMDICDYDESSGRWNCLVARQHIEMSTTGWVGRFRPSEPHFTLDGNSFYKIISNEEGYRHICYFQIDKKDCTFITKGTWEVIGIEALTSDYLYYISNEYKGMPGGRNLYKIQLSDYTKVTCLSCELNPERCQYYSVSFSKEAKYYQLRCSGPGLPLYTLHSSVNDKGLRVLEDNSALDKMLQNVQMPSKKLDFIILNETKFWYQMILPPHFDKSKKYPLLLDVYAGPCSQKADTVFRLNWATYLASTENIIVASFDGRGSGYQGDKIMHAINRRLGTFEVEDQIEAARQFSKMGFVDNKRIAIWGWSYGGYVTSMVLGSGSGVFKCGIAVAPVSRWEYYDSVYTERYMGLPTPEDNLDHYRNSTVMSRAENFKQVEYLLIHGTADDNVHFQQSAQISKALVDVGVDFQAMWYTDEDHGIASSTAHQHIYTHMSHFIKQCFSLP

Series [5] in a line: Stability in simulated intestinal fluid. It is filed as in vitro ADME. Conditions: 2 μM peptidomimetic, simulated intestinal fluid pH 7.5, 37° C.; for half-life at 2 μM: read-out: half-life (t1/2) when incubated with simulated intestinal fluid. On the procedure:
as §1

The target in a further series is T2, human glucagon receptor (Homo sapiens, UniProt P47871).
T2 construct: The full-length cDNA was cloned in pcDNA3.1 (Invitrogen); expressed in transfected cells
T2 sequence (P47871 26-477): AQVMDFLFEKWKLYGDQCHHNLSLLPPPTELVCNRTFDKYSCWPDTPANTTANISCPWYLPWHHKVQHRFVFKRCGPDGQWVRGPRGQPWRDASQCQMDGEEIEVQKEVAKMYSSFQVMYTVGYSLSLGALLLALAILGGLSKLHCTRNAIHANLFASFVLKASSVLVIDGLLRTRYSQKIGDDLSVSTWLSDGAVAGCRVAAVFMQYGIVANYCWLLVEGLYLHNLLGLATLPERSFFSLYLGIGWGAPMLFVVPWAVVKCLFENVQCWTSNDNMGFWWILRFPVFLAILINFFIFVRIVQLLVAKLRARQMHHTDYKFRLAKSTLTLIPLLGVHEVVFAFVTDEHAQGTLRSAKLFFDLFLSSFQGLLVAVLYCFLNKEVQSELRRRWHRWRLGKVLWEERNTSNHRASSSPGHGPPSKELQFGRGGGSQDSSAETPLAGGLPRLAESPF
In words: In vitro human glucagon antagonist activity (inhibition of cAMP production) in CHO/human glucagon R cells. It is filed as cell-based. Conditions: with saturated concentration of glucagon peptide. A general note: cAMP levels reflect the balance of adenylyl cyclase and phosphodiesterase activity.

T1 sequence (P43220 24-463): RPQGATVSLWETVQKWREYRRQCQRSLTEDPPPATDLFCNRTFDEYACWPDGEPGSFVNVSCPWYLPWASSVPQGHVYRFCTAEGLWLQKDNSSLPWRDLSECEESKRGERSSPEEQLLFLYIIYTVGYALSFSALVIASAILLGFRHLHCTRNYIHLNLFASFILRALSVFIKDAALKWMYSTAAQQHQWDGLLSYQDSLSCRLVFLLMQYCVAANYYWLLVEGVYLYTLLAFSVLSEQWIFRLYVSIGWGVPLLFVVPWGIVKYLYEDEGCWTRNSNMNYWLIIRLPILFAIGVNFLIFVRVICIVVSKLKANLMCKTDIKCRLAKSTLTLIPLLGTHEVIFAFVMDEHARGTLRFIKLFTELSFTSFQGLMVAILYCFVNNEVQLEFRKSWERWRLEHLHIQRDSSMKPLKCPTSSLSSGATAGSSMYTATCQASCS

Regarding `CCc1cc(OC)ccc1-c1ccc(CC(CNC(CCCc2ccccc2F)C(N)=O)NC[C@H](CC(=O)O)NC(=O)[C@H](CO)NC(=O)[C@@H](NC(=O)C(C)(Cc2ccccc2F)NC(=O)[C@@H](NC(=O)CNC(=O)[C@H](CCC(N)=O)NC(=O)C(C)(C)NC(=O)[C@H](Cc2c[nH]cn2)NC(=O)OC)[C@H](C)O)[C@H](C)O)cc1` (single isomer, unassigned) [compound 200], the “Human GLP-1 R activity (cAMP release), % activity with respect to control” value on Human GLP-1 receptor (1 nM test compound) is 55 ± 0.16%; at Human GLP-1 receptor (10 nM test compound), 88 ± 0.13%; at Human GLP-1 receptor (100 nM test compound) it was 92 ± 0.11%; at Human GLP-1 receptor (1 μM test compound), 99 ± 0.07%; on Human GLP-1 receptor (10 μM test compound), 99 ± 0.09%. For the same compound, in series [1], the “% degradation of peptidomimetics in 24 h when incubated with liver microsomes” value is recorded as 81%. The half-life at 2 μM in series [1] (pH 7.8, read-out: half-life (t1/2) when incubated with liver microsomes) was 120 min; in series [3], 240 min; in series [4], > 1440 min; at DPP IV, > 1440 min; in series [5] it was > 1440 min. Also, the Insulin secretion came out at 16.5 ± 0.12 pg/µg/h in series [2] (0.1 nM test compd.), 22.7 ± 0.17 pg/µg/h in series [2] (1 nM test compd.) and 36.5 ± 0.05 pg/µg/h in series [2] (10 nM test compd.). In addition, in series [3], the “% degradation of peptidomimetics in 24 h when incubated with simulated gastric fluid” value is 52%. Further, the “% degradation of peptidomimetics in 24 h when incubated with human plasma” value in series [4] came to 00%. Besides, the “% degradation of peptidomimetics in 24 h when incubated with DPP-IV enzyme” value on DPP IV came to 00%. In addition, the “% degradation of peptidomimetics in 24 h when incubated with simulated intestinal fluid” value in series [5] was 00%. Besides, the “Human Glucagon receptor antagonistic activity shown as inhibition of cAMP production of Glucagon peptide” value at human glucagon receptor (1 nM test compound) came to 10 ± 0.16 pmol/ml/μg prt; on human glucagon receptor (10 nM test compound) it was 8 ± 0.12 pmol/ml/μg prt; on human glucagon receptor (100 nM test compound), 6 ± 0.14 pmol/ml/μg prt; on human glucagon receptor (1 μM test compound) it was 4 ± 0.15 pmol/ml/μg prt; on human glucagon receptor (10 μM test compound), 1 ± 0.12 pmol/ml/μg prt.
For `CCc1cc(OC)ccc1-c1ccc(CC(CNC(CCCc2ccccc2)C(N)=O)NC[C@H](CC(=O)O)NC(=O)[C@H](CO)NC(=O)[C@@H](NC(=O)C(C)(Cc2ccccc2F)NC(=O)[C@@H](NC(=O)CNC(=O)C(CCC#N)NC(=O)C(C)(C)NC(=O)[C@@H](N)Cc2c[nH]cn2)[C@H](C)O)[C@H](C)O)cc1` (single isomer, unassigned) [compound 202], the “Human GLP-1 R activity (cAMP release), % activity with respect to control” value was found to be 99 ± 0.12% at Human GLP-1 receptor (1 nM test compound); 99 ± 0.15% on Human GLP-1 receptor (10 nM test compound); 99 ± 0.18% at Human GLP-1 receptor (100 nM test compound); 99 ± 0.03% on Human GLP-1 receptor (1 μM test compound); 99 ± 0.09% at Human GLP-1 receptor (10 μM test compound). Moreover, the “half-life (t1/2) when incubated with liver microsomes” value in series [1] is reported as “(5) h”. For the same compound, in series [1], the “% degradation of peptidomimetics in 24 h when incubated with liver microsomes” value is recorded as 33%. Moreover, the results for the Insulin secretion in series [2] (0.1 nM test compd.), in series [2] (1 nM test compd.) and in series [2] (10 nM test compd.) were 16.8 ± 0.20 pg/µg/h, 22.7 ± 0.29 pg/µg/h and 36.6 ± 0.31 pg/µg/h, respectively. Besides, the “% degradation of peptidomimetics in 24 h when incubated with simulated gastric fluid” value in series [3] is 00%. In addition, the half-life at 2 μM (in series [3]; in series [4]; on DPP IV; in series [5]) was > 1440 min throughout. For the same compound, the “% degradation of peptidomimetics in 24 h when incubated with human plasma” value in series [4] amounted to 00%. Moreover, the “% degradation of peptidomimetics in 24 h when incubated with DPP-IV enzyme” value at DPP IV is reported as 00%. Also, the “% degradation of peptidomimetics in 24 h when incubated with simulated intestinal fluid” value in series [5] is 00%. Moreover, the “Human Glucagon receptor antagonistic activity shown as inhibition of cAMP production of Glucagon peptide” value on human glucagon receptor (1 nM test compound) came to 9 ± 0.14 pmol/ml/μg prt; on human glucagon receptor (10 nM test compound), 6 ± 0.14 pmol/ml/μg prt; at human glucagon receptor (100 nM test compound), 5 ± 0.13 pmol/ml/μg prt; at human glucagon receptor (1 μM test compound), 3 ± 0.24 pmol/ml/μg prt; on human glucagon receptor (10 μM test compound), 0 pmol/ml/μg prt.

Source of the values: patent publication US8883963B2 (Cadila Healthcare Limited, priority 2007, dated 2014).
